# Patent US10633389B2, “CARM1 inhibitors and uses thereof” (Epizyme, Inc., priority 2013, dated 2020)
# System: asymmetric di-methyl PABP1 in RKO cells
# Assay: RKO methylation assay, In Cell Western (ICW) for asymmetric di-methyl PABP1
# Type: cell-based
# Details: Cellular potencies, ICW PABP1me2a
# In short: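 In-cell Western on fixed RKO cells after 48 h compound exposure: anti-asymmetric di-methyl PABP1 signal at 800 nm over DRAQ5 DNA signal at 700 nm. Percent inhibition set between DMSO wells and wells with 20 μM reference compound; IC50 curves fitted in triplicate.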
"IC50 (Homo sapiens, RKO) [µM]",IC50 [µM],Structure (SMILES)
< 5,–,CNC[C@H](O)COc1ccc(Cl)c(-c2nc(-c3c(C)noc3C)c(C)c(N3Cc4ccncc4C3)n2)c1 [Example 90-3]
< 5,–,CNC[C@@H](O)COc1ccc(Cl)c(-c2nc(-c3c(C)noc3C)c(C)c(N3C[C@H]4COC[C@H]4C3)n2)c1 [Example 186-3]
5 to 10,–,CNC[C@@H](O)COc1ccc(Cl)c(-c2nc(-c3c(C)noc3C)c(C)c(N3CC(CO)(CO)C3)n2)c1 [Example 163-3]
< 5,–,CCOC(=O)N1CC[C@H](Nc2nc(-c3cc(OC[C@H](O)CNC)ccc3Cl)nc(-c3c(C)noc3C)c2Cl)C1 [Example 151-3]
< 5,–,CNC[C@@H](O)COc1ccc(Cl)c(-c2nc(-c3c(C)noc3C)c(F)c(N3CC4(CCOCC4)C3)n2)c1 [Example 261-3]
< 5,–,CCOC(=O)N1CCOC[C@@H]1CNc1nc(-c2cc(OC[C@H](O)CNC)ccc2F)nc(-c2c(C)noc2C)c1C [Example 62-3]
–,< 5,CNC[C@@H](O)COc1ccc(Cl)c(-c2nc(-c3c(C)noc3C)c(C)c(N3Cc4c(C)nn(C)c4C3)n2)c1 [Example 237-3]
< 5,–,CNC[C@H](O)COc1ccc(Cl)c(-c2nc(-c3c(C)noc3C)c(C)c(N(C)[C@H]3C[C@@](C)(OC)C3)n2)c1 [Example 95-3]
< 5,–,CNC[C@@H](O)COc1ccc(Cl)c(-c2nc(OC[C@H]3CCOC3)c(C)c(-c3c(C)noc3C)n2)c1 [Example 117-3]
10 to 20,–,CNCC(O)COc1cccc(-c2nc(NC3CCOCC3)c(C)c(-c3c(C)noc3CO)n2)c1 (stereo not shown) [Example 145-3]
< 5,–,CNC[C@H](O)COc1cccc(-c2nc(NC3CCN(C(=O)OC)C(C)C3)c(C)c(-c3c(C)noc3C)n2)c1 (stereo partly shown) [Example 33-3]
< 5,–,CNC[C@@H](O)COc1ccc(Cl)c(-c2nc(N[C@H]3CO[C@@H](C)C3)c(C)c(-c3c(C)noc3C)n2)c1 [Example 152-3]
< 5,–,CCOC(=O)N1CCC[C@@H]1CCNc1nc(-c2cc(OC[C@H](O)CNC)ccc2Cl)nc(-c2c(C)noc2C)c1C [Example 136-3]
< 5,–,CNC[C@H](O)COc1ccc(Cl)c(-c2nc(-c3c(C)noc3C)c(C)c(N3CCC4(CC3)CN(C(=O)OC)C4)n2)c1 [Example 85-3]
< 5,–,CCOC(=O)N1CCOC[C@@H]1CNc1nc(-c2cc(OC[C@@H](O)CNC)ccc2Cl)nc(-c2c(C)noc2C)c1C [Example 42-3]
< 5,–,CNCC(O)COc1cccc(-c2nc(NC3CCOCC3)cc(-c3c(C)noc3C)n2)c1 (stereo not shown) [Example 33-1]
< 5,–,CNC[C@@H](O)COc1ccc(F)c(-c2nc(-c3c(C)noc3C)c(C)c(N3CC4(CCCCO4)C3)n2)c1 [Example 269-3]
< 5,–,CNC[C@H](O)COc1ccc(Cl)c(-c2nc(NC[C@H]3COCCN3C(=O)OC)c(C)c(-c3c(C)noc3C)n2)c1 [Example 58-3]
< 5,–,CNC[C@@H](O)COc1ccc(Cl)c(-c2nc(-c3c(C)noc3C)c(C)c(N3Cc4c(C)nn(C)c4C3)n2)c1 [Example 236-3]

# The remaining lines, values behind:
Structure (SMILES),"IC50 (Homo sapiens, RKO) [µM]",IC50 [µM]
CNCC(O)COc1cccc(-c2nc(NC3CCN(C(=O)OC)CC3)cc(-c3c(C)noc3C)n2)c1 (stereo not shown) [Example 102-1a],< 5,–
CNCC(O)COc1cccc(-c2nc(N[C@@H]3CCOC3)c(C)c(-c3cnc4[nH]ccc4c3)n2)c1 (stereo partly shown) [Example 355-1a],10 to 20,–
CNCC(O)COc1cccc(-c2nc(-c3cnc4ncnn4c3)cc(N(C)C3CCOCC3)n2)c1 (stereo not shown) [Example 536-1a],5 to 10,–
CNCC(O)COc1cccc(-c2nc(-c3c(C)noc3C)cc(N3C[C@@H]4C[C@H]3CN4C(=O)OC)n2)c1 (stereo partly shown) [Example 94-1a],< 5,–
CNCC(O)COc1cccc(-c2nc(NC3CCOC3)c(C)c(N3CCN(C)C(C)(C)C3)n2)c1 (stereo not shown) [Example 455-1a],< 5,–
CNCC(O)COc1cccc(-c2nc(OCC3CCN(C(C)=O)CC3)c(C)c(-c3c(C)noc3C)n2)c1 (stereo not shown) [Example 287-1a],< 5,–
CNCC(O)COc1cccc(-c2nc(OCC3CCNCC3)c(C)c(-c3c(C)noc3C)n2)c1 (stereo not shown) [Example 289-1a],5 to 10,–
CNCC(O)COc1cccc(-c2nc(-c3c(C)noc3C)c(C)c(N3CCO[C@H](CO)C3)n2)c1 (stereo partly shown) [Example 125-1a],< 5,–
CNCC(O)COc1cccc(-c2nc(NC3CC(C(=O)OC)C3)cc(-c3c(C)noc3C)n2)c1 (stereo not shown) [Example 45-1a],< 5,–
CNCC(O)COc1cccc(-c2nc(-c3c(C)noc3C)cc(N3CCN[C@@H](C)C3)n2)c1 (stereo partly shown) [Example 40-1a],10 to 20,–
CNCC(O)COc1cccc(-c2nc(N[C@H]3[C@@H]4CN(C(=O)OC)C[C@@H]43)c(C)c(-c3c(C)noc3C)n2)c1 (stereo partly shown) [Example 282-1a],< 5,–
CNCC(O)COc1cccc(-c2nc(NCC3CCN(C(=O)C4CC4)CC3)c(C)c(-c3c(C)noc3C)n2)c1 (stereo not shown) [Example 249-1a],< 5,–
CNCC(O)COc1cccc(-c2nc(-c3ccnc(C(=O)NC)c3)cc(N(C)C3CCOCC3)n2)c1 (stereo not shown) [Example 510-1a],5 to 10,–
CNCC(O)COc1cccc(-c2nc(N(C)c3cncnc3)cc(N(C)C3CCOCC3)n2)c1 (stereo not shown) [Example 487-1a],< 5,–
CNC[C@H](O)COc1cccc(-c2nc(NC3CCOCC3)cc(-c3c(C)noc3C)n2)c1 [Example 17-1a],< 5,–
CCS(=O)(=O)N1CCC(Nc2nc(-c3cccc(OCC(O)CNC)c3)nc(-c3c(C)noc3C)c2C)CC1 (stereo not shown) [Example 168-1a],< 5,–
CNCC(O)COc1cc(Cl)cc(-c2nc(C(=O)N(C)CC3CCOCC3)cc(N(C)C3CCOCC3)n2)c1 (stereo not shown) [Example 577-1a],10 to 20,–
CNCC(O)COc1cccc(-c2nc(N[C@@H]3CCOC3)c(C)c(N3CCN(C(C)=O)[C@@H](C)C3)n2)c1 (stereo partly shown) [Example 396-1a],10 to 20,–
CNCC(O)COc1cccc(-c2nc(N3CCN(C)C(=O)C3)cc(N(C)C3CCOCC3)n2)c1 (stereo not shown) [Example 549-1a],10 to 20,–
CC[C@H]1CN(c2nc(-c3cccc(OCC(O)CNC)c3)nc(-c3c(C)noc3C)c2C)CCN1S(C)(=O)=O (stereo partly shown) [Example 155-1a],< 5,–
CNCC(O)COc1cccc(-c2nc(-c3nc(C)cn3C)cc(N(C)C3CCOCC3)n2)c1 (stereo not shown) [Example 519-1a],5 to 10,–
CNCC(O)COc1cccc(-c2nc(-c3c(C)noc3C)cc(N3C[C@@H]4C[C@H]3CN4C(C)=O)n2)c1 (stereo partly shown) [Example 95-1a],10 to 20,–
CNCC(O)COc1cccc(-c2nc(N3CCO[C@H](CN)C3)cc(N(C)C3CCOCC3)n2)c1 (stereo partly shown) [Example 524-1a],5 to 10,–
CNCC(O)COc1cccc(-c2nc(NC3CCCN(C4COC4)C3)c(C)c(-c3c(C)noc3C)n2)c1 (stereo not shown) [Example 246-1a],5 to 10,–
CNCC(O)COc1cccc(-c2nc(-c3cccc(C#N)c3)cc(N(C)C3CCOCC3)n2)c1 (stereo not shown) [Example 622-1a],10 to 20,–
CNCC(O)COc1cccc(-c2nc(N[C@@H]3CCOC3)c(C)c(N3CCC(S(C)(=O)=O)CC3)n2)c1 (stereo partly shown) [Example 441-1a],5 to 10,–
CNCC(O)COc1cccc(-c2nc(NC3CCN(C4COC4)C3)c(C)c(-c3c(C)noc3C)n2)c1 (stereo not shown) [Example 240-1a],< 5,–
CNCC(O)COc1cccc(-c2nc(N[C@H]3CCOC3=O)c(C)c(-c3c(C)noc3C)n2)c1 (stereo partly shown) [Example 281-1a],10 to 20,–
CNCC(O)COc1cccc(-c2nc(-c3c(C)noc3C)c(C)c(N3CCO[C@H](C)C3)n2)c1 (stereo partly shown) [Example 211-1a],< 5,–
CCOC(=O)N1CCC(CNc2nc(-c3cccc(OCC(O)CNC)c3)nc(-c3c(C)noc3C)c2C)CC1 (stereo not shown) [Example 191-1a],< 5,–
